Results on 2 molecules are retold here after US20080025946A1, “INTERLEUKIN 21 AND TYROSINE KINASE INHIBITOR COMBINATION THERAPY” (priority 2006, published 2008).

One test concerns RenCa.2 tumor. Nature of the test: Concurrent mIL-21 and sub-maximal sorafenib: RenCa.2 tumor growth in mice. It is filed as in vivo, mouse. The method, then:
Tumor volume was monitored 3×/week for 3 weeks.
Ten-week old female BALB/c mice (Charles River Laboratories) were injected s.c. on the right flank with 0.1×10^6 RenCa.2 cells on Day 0. […] Tumor growth was monitored 3×/week for 3 weeks using caliper measurements. Tumor volume is calculated using the formula ½*(B)2*L (mm3).

The subject of a further test is RenCa.2 tumors. Nature of the test: Concurrent mIL-21 and high dose sorafenib: survival of mice bearing RenCa.2 tumors. Conditions: BALB/c mice, s.c. RenCa; from day 5: 50 μg mIL-21 i.p. 5/9/5 and/or 60 mg/kg sorafenib oral gavage 10 days; n=10/group. It is filed as in vivo, mouse. The method, then: Survival of mice receiving the treatments were monitored over 35 days.
Survival of mice were monitored over 35 days.
Ten-week old female BALB/c mice (Charles River Laboratories) were injected s.c. on the right flank with 0.1×10^6 RenCa cells on Day 0. […] Tumor growth was monitored 3×/week for 3 weeks using caliper measurements. Survival of mice were monitored over 35 days. Tumor bearing mice were terminated as per IACUC policies with regard to maximal tumor size (1200 mm^3) or weight loss of >=20% of initial body weight.

The test system of test [1] is murine model of renal adenocarcinoma (RenCa). Conditions: cited from earlier work.
Test [2] deals with RenCa.2 mouse renal cell carcinoma model. The conditions noted are these: RenCa.2 model.

Like-named read-outs stand apart in the source and are kept apart here.

Consider `CNC(=O)c1cc(Oc2ccc(NC(=O)Nc3ccc(Cl)c(C(F)(F)F)c3)cc2)ccn1` [sorafenib], for which the “inhibition of tumor growth (in words)” value with RenCa.2 tumor (25 μg mIL-21 and/or 2 mg/kg sorafenib, RenCa.2 model) is “partially effective”. Also, in the test with RenCa.2 tumor (BALB/c mice, s.c. RenCa.2, from day 3: 25 μg mIL-21 i.p. 5 days and/or 2 mg/kg sorafenib oral gavage 10 days, Day 21, n=10/group), the “Tumor volume mm3 + SD(Day21)” value is listed as 790.3 + 398.8 mm3. Further, the “% mice surviving at Day 35” value with RenCa.2 tumors worked out at 50%. In addition, the figures for the “inhibition of tumor growth” value in test [1] (7.5 mg/kg daily) and in test [1] (60 mg/kg daily) were 30% and 84%, respectively. Besides, the “doses at which partially effective in mediating tumor clearance” value in test [2] is “below 10 mg/kg”.
In the case of `CCN(CC)CCNC(=O)c1c(C)[nH]c(/C=C2\C(=O)Nc3ccc(F)cc32)c1C` [sunitinib], the “doses at which maximally effective in mediating tumor clearance” value in test [2] (sunitinib orally administered) is “above 40 mg/kg”.
